Read-outs that look alike come from different tables or passages of the source.
Legend:
[1] = Pharmacokinetics of AE-PM components and their phase II metabolites in rat plasma after single oral administration (UHPLC-MS/MS, with and without sulfatase hydrolysis); conditions: for AUC(0-inf) / CL/F / Cmax / MRT inf / Tmax / Vd/F / half-life / Conversion into phase II metabolites / t1/2z: plasma; for CL/F: CLz/F; for MRT inf: MRT (0-∞); for Vd/F: Vz/F; for half-life: t1/2z; for Conversion into phase II metabolites: rats
Protocol: (§1) To explore the pharmacokinetic properties of PM following intragastric administration in rats, a rapid and sensitive method involving the use of UHPLC-MS/MS (Agilent 6460 series, Agilent Technologies, Santa Clara, CA, United States) was developed and validated for the simultaneous quantification of nine active components in rat plasma. The quantification was conducted in ESI negative ionization mode, and mass spectrometry conditions were set up as follows: capillary voltage of 3500 V; gas flow at 12 L/min; nebulizer of 40 psi; the gas temperature of 350°C; and delta EMV (−) of 400. A 10 µl extraction sample was injected into the column (Agilent SB-C18 column, 2.1 mm × 50 mm, 1.8 mm) and eluted at 0.4 ml/min with a gradient elution of water (with 0.1% v/v formic acid) (A) and acetonitrile (B) (0–1.5 min, 20–30% B; 1.5–3.5 min, 30–50% B; 3.five to four min, 50–55%B; 4–6.5 min, 55–85% B; 6.5–6.6 min, 85–20% B and re-equilibration for 3 min).
(§2) A 50 µl aliquot of blood plasma sample was placed in a centrifuge tube with 50 µl of puerarin (internal standard, IS) solution (1,000 ng/ml), followed by 150 µl methanol, which was mixed for 5 min. Then, the mixture was centrifuged for 10 min at 15,000 rpm (4°C), the supernatant was transferred to a clean centrifuge tube and dried with nitrogen gas at room temperature. The residue was resuspended in 100 µl of methanol, then centrifuged at 15,000 rpm (4°C, 10 min), and 10 µl of the supernatant was analyzed by UHPLC-MS/MS.
(§3) Additional plasma samples (50 µl) were enzymatically hydrolyzed with 50 µl of enzyme solution (65.86 mg of sulfatase, dissolved in 2 ml of sodium acetate buffer, pH 5.0) for phase II metabolite quantification, in accordance with our previous study ([Ding et al., 2012]; [Yi et al., 2018]). After being vortex mixed for 5 min, the mixture was incubated at 37°C for 30 min and returned to room temperature. Subsequently, the samples were processed as described above.
(§4) The remaining 21 rats of the three groups were treated with a single oral dose of AE-PM (50.4 g PM/kg). […] Blood was collected in heparinized tubes at 5, 15, 30, 45, 60, 120, 240, 360, 480, 720, 1,440, 2,880, and 4,320 min after administration. The blood samples were centrifuged at 5,000 rpm (4°C) for 7 min, and the supernatant plasma was harvested.
(§5) All data were presented as mean ± standard deviation (SD). A one-way analysis of variance (ANOVA) was used to compare the data between three groups. The differences were considered to be statistically significant when p < 0.05 and highly significant when the p-value was <0.01 or p < 0.001. Spearman rank correlation coefficient, calculated by bivariate correlation analysis was used to evaluate the correlation between AUC values and expression levels of metabolic enzyme and transporters. All statistical analyses were performed with the SPSS Statistics system (SPSS vision 21.0). Pharmacokinetic data analyses were performed using DAS 2.1.1 software (Mathematical Pharmacology Professional Committee of China, Shanghai, China).

[2] = rat, in vivo, po
Protocol: as §1, §2, §3, §4, §5

in vivo = conditions: rat, po, 50 g/kg; for MRT inf: MRT (0-∞); for MRT inf / Tmax: oral AE-PM 50 g/kg, plasma, n = 6
Protocol: as §1, §2, §3, §4, §5

[3] = rat, po, 50 g/kg, ANIT group rats, oral AE-PM 50 g/kg, n = 6
[4] = rat, po, 50 g/kg, CCl4 group rats, oral AE-PM 50 g/kg, n = 6
[5] = rat, po, 50 g/kg, Normal group rats, oral AE-PM 50 g/kg, n = 6
[6] = rat, po, 50 g/kg, Tmax, ANIT group rats, oral AE-PM 50 g/kg, n = 6
[7] = rat, po, 50 g/kg, Tmax, CCl4 group rats, oral AE-PM 50 g/kg, n = 6
[8] = rat, po, 50 g/kg, Tmax, Normal group rats, oral AE-PM 50 g/kg, n = 6
[9] = CCl4 group rats, oral AE-PM 50 g/kg, n = 6
[10] = rat, po, 50.4 g PM/kg, Tmax, different groups (normal, ANIT, CCl4), oral AE-PM

SMILES | AUC(0-inf) [1, 3] [ng·h/mL] | AUC(0-inf) [1, 4] [ng·h/mL] | AUC(0-inf) [1, 5] [ng·h/mL] | CL/F [1, 3] [mL/min/kg] | CL/F [1, 4] [mL/min/kg] | CL/F [1, 5] [mL/min/kg] | Cmax [1, 3] [ng/mL] | Cmax [1, 4] [ng/mL] | Cmax [1, 5] [ng/mL] | MRT inf [1, 3] [h] | MRT inf [1, 4] [h] | MRT inf [1, 5] [h] | Tmax [1, 6] [h] | Tmax [1, 7] [h] | Tmax [1, 8] [h] | Vd/F [1, 3] [L/kg] | Vd/F [1, 4] [L/kg] | Vd/F [1, 5] [L/kg] | half-life [1, 3] [h] | half-life [1, 5] [h] | further results
OC[C@H]1O[C@@H](Oc2c(O)cc(O)cc2/C=C/c2ccc(O)cc2)[C@H](O)[C@@H](O)[C@@H]1O [TSG, 2,3,5,4'-tetrahydroxystilbene-2-O-β-D-glucoside] | 341000 | 116000 | 12900 | 0.983 | 2.87 | 25.9 | 99300 | 50600 | 15000 | 6.03 ± 1.93 | 3.4 ± 1.04 | 4.54 ± 1.23 | 0.5 ± 0.0278 | 0.75 ± 0.136 | 0.25 ± 0.0293 | 0.221 ± 0.0206 | 0.698 ± 0.073 | 4.37 ± 0.711 | 2.61 ± 0.612 | 1.95 ± 0.806 | Increase of AUC (0-∞) compared with the normal group ([1]; ANIT model rats, oral AE-PM): 2,548.17%; Increase of Cmax compared with the normal group ([1]; ANIT model rats, oral AE-PM): 560.12%; Increase of AUC (0-∞) compared with the normal group ([1]; CCl4 model rats, oral AE-PM): 802.14%; Increase of Cmax compared with the normal group ([1]; CCl4 model rats, oral AE-PM): 236.59%; half-life [1, 4]: 2.81 ± 0.878 h; Conversion into phase II metabolites ([1]; oral AE-PM): partially converted
Cc1cc(O)c2c(c1)C(=O)c1cc(O)cc(O)c1C2=O [Emodin, emodin] | 1500 | 5970 | 3400 | 223 | 55.9 | 98.1 | 607 ± 29.9 | 6430 | 4100 | 22.8 ± 5.28 | 1.23 ± 0.681 | 6.09 ± 1.83 | – | – | 0.167 ± 0.059 | 75.5 ± 8.86 | 68.1 ± 6.03 | 31.3 ± 3.25 | 3.91 ± 0.821 | – | Decrease of AUC (0-∞) compared with the normal group [2]: 55.98%; Decrease of Cmax compared with the normal group [2]: 85.18%; Increase of AUC (0-∞) compared with the normal group [2]: 75.69%; Increase of Cmax compared with the normal group [2]: 57.02%; Tmax [1, 9]: 0.25 ± 0.0659 h; t1/2z [1, 9]: 3.654 ± 0.267 h; t1/2z ([1]; Normal group rats, oral AE-PM 50 g/kg, n = 6): 3.681 ± 1.075 h; Tmax [1, 10]: < 0.5 h; Conversion into phase II metabolites ([1]; oral AE-PM): partially converted
Oc1cc(O)c2c(c1)O[C@H](c1ccc(O)c(O)c1)[C@@H](O)C2 [Catechin, catechin] | 11600 | 1500 | 12600 | 28.8 | 222 | 26.4 | 84.5 ± 8.85 | 453 ± 8.94 | 251 ± 11.8 | 253 ± 3.75 | 11.2 ± 1.23 | 146 ± 11.3 | 1 ± 0.742 | 0.5 ± 0.0408 | 0.25 ± 0.0234 | 442 ± 16.9 | 72.2 ± 12.6 | 237 ± 18.3 | 177.3 ± 1.09 | 104 ± 14.9 | half-life [1, 4]: 3.76 ± 0.816 h; Conversion into phase II metabolites ([1]; oral AE-PM): partially converted
COc1cc(O)c2c(c1)C(=O)c1cc(C)cc(O)c1C2=O [Physcion, physcion] | 14000 | 36000 | 27800 | 23.9 | 9.27 | 12 | 1510 | 5840 | 2140 | 37.6 ± 2.27 | 10 ± 1.14 | 26.7 ± 1.52 | 0.75 ± 0.0238 | 1 ± 0.0675 | 0.5 ± 0.094 | 59.8 ± 3.41 | 7.05 ± 1.11 | 17.6 ± 2.41 | 28.9 ± 1.5 | 17 ± 1.87 | Decrease of AUC (0-∞) compared with the normal group ([1]; ANIT model rats, oral AE-PM): 49.77%; Decrease of Cmax compared with the normal group ([1]; ANIT model rats, oral AE-PM): 29.48%; Increase of AUC (0-∞) compared with the normal group ([1]; CCl4 model rats, oral AE-PM): 29.24%; Increase of Cmax compared with the normal group ([1]; CCl4 model rats, oral AE-PM): 173.72%; Levels of glucuronidation and sulfation conjugates in plasma ([1]; oral AE-PM, sulfatase hydrolysis): too low to allow pharmacokinetic analysis; half-life [1, 4]: 8.78 ± 1.6 h
O=C(O)c1cc(O)c(O)c(O)c1 [Gallic acid, gallic acid] | – | – | – | – | – | – | – | – | – | – | – | – | – | – | – | – | – | – | – | – | MRT inf (in vivo; ANIT group rats): 55.7 ± 4.22 h; MRT inf (in vivo; CCl4 group rats): 3.06 ± 0.12 h; MRT inf (in vivo; Normal group rats): 12.8 ± 1.02 h; Tmax (in vivo; ANIT group rats): 0.75 ± 0.0231 h; Tmax (in vivo; CCl4 group rats): 0.25 ± 0.0641 h; Tmax (in vivo; Normal group rats): 0.25 ± 0.0728 h; Vd/F (in vivo; Vz/F): 205 ± 2.2 L/kg
Cc1cc(O[C@@H]2O[C@H](CO)[C@@H](O)[C@H](O)[C@H]2O)c2c(c1)C(=O)c1cc(O)cc(O)c1C2=O [E-glu, emodin-8-O-β-D-glucoside] | 1720 ± 170 | 14200 | 1880 ± 538 | 193 | 23.5 | 177 | 633 ± 50 | 5920 | 821 ± 85 | 2.81 ± 0.872 | 2.44 ± 1.17 | 3.88 ± 1.52 | 1 ± 0.248 | 1 ± 0.289 | 0.25 ± 0.0301 | 78.3 ± 4.4 | 8.13 ± 1.75 | 60.2 ± 9.45 | 4.68 ± 1.1 | 3.92 ± 0.219 | Decrease of AUC (0-∞) compared with the normal group ([1]; ANIT model rats, oral AE-PM): 8.25%; Decrease of Cmax compared with the normal group ([1]; ANIT model rats, oral AE-PM): 22.98%; Increase of AUC (0-∞) compared with the normal group ([1]; CCl4 model rats, oral AE-PM): 655.90%; Increase of Cmax compared with the normal group ([1]; CCl4 model rats, oral AE-PM): 620.15%; half-life [1, 4]: 4 ± 1.4 h
O=C1c2cccc(O)c2C(=O)c2c(O)cc(CO)cc21 [Aloe-emodin, aloe-emodin] | 41700 | 6620 | 3560 | 7.98 | 50.4 | 93.6 | 1570 | 2600 | 1270 | 198 ± 3.17 | 6.47 ± 0.422 | 14 ± 1.42 | 0.25 ± 0.032 | 0.25 ± 0.052 | 0.167 ± 0.051 | 96.7 ± 8.35 | 15 ± 1.2 | 28.7 ± 1.55 | 140 ± 8.29 | 3.54 ± 0.185 | t1/2z [1, 9]: 3.448 ± 0.177 h; Tmax [1, 10]: < 0.5 h
COc1cc(O)c2c(c1)C(=O)c1cc(C)cc(O[C@@H]3O[C@H](CO)[C@@H](O)[C@H](O)[C@H]3O)c1C2=O [P-glu, physcion-8-O-β-D-glucoside] | 7050 | 1450 | 2270 | 47.3 | 230 | 147 | 223 ± 13.2 | 211 ± 3.04 | 148 ± 8.95 | 18.8 ± 3.36 | 7.48 ± 1.42 | 15.9 ± 2.36 | 1 ± 0.232 | 0.25 ± 0.0661 | 0.75 ± 0.049 | 13.2 ± 1.86 | 81.3 ± 5.01 | 143 ± 11.1 | 3.22 ± 0.473 | 11.3 ± 1.85 | half-life [1, 4]: 4.08 ± 0.453 h

Source: article PMC8245786, “Comparative Studies on Multi-Component Pharmacokinetics of Polygonum multiflorum Thunb Extract After Oral Administration in Different Rat Models” (Frontiers in Pharmacology, 2021)
